# Data as given in publication PMC7316778 (Nature Communications, 2020).
# “And” between values parts separate entries of the source, which are not always exact repeats. Equal entries are not always repeated. Where two headings read alike, the source gives them in different places.
# Key:
# Assay in all cases: SelectScreen kinase assay
# FLT3 [1] = conditions: IC50 on that kinase divided by IC50 on FES^S700C
# Protocol: (§1) Selectivity profiling assays were performed by the Invitrogen SelectScreen™ Services. […] The concentration of ATP was selected to be equal to the KM, unless indicated otherwise.
# FLT3 [2] = biological target: FLT3 (Homo sapiens, UniProt P36888)
# Protocol: as §1
# SGK (SGK1) = biological target: T1, SGK (SGK1) (Homo sapiens, UniProt O00141)
# T1 sequence (O00141 1-431): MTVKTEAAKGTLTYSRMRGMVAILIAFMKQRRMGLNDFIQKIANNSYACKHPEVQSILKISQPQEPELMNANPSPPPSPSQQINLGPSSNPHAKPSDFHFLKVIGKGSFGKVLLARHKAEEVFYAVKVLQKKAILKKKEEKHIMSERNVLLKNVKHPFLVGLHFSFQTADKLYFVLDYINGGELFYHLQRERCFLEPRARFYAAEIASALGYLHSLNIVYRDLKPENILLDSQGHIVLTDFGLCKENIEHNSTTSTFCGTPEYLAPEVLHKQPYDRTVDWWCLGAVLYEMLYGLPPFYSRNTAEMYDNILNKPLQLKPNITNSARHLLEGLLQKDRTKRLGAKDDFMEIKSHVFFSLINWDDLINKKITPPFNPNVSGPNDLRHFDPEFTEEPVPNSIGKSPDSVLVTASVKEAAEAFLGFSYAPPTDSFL
# Protocol: as §1
# MAP3K2 (MEKK2) = MAP3K2 (MEKK2) (Homo sapiens, UniProt Q9Y2U5)
# MAP3K2 (MEKK2), sequence (Q9Y2U5 whole entry): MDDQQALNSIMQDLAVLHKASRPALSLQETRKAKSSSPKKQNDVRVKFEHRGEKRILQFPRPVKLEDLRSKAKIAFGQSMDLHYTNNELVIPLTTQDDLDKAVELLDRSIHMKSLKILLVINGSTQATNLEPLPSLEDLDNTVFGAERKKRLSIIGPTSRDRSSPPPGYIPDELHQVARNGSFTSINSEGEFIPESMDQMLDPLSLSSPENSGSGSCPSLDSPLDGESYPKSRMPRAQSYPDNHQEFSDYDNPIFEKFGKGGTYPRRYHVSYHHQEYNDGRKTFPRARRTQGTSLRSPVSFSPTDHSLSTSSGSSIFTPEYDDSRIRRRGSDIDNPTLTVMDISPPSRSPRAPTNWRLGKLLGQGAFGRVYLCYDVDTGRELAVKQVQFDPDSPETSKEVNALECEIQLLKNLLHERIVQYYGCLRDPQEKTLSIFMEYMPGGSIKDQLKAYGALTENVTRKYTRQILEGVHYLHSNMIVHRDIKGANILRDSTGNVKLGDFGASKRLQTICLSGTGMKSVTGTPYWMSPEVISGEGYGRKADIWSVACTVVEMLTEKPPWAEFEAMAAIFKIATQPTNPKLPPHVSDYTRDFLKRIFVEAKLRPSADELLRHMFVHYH
# Protocol: as §1
# MERTK (cMER) = MERTK (cMER) (Homo sapiens, UniProt Q12866)
# MERTK (cMER), sequence (Q12866 21-999): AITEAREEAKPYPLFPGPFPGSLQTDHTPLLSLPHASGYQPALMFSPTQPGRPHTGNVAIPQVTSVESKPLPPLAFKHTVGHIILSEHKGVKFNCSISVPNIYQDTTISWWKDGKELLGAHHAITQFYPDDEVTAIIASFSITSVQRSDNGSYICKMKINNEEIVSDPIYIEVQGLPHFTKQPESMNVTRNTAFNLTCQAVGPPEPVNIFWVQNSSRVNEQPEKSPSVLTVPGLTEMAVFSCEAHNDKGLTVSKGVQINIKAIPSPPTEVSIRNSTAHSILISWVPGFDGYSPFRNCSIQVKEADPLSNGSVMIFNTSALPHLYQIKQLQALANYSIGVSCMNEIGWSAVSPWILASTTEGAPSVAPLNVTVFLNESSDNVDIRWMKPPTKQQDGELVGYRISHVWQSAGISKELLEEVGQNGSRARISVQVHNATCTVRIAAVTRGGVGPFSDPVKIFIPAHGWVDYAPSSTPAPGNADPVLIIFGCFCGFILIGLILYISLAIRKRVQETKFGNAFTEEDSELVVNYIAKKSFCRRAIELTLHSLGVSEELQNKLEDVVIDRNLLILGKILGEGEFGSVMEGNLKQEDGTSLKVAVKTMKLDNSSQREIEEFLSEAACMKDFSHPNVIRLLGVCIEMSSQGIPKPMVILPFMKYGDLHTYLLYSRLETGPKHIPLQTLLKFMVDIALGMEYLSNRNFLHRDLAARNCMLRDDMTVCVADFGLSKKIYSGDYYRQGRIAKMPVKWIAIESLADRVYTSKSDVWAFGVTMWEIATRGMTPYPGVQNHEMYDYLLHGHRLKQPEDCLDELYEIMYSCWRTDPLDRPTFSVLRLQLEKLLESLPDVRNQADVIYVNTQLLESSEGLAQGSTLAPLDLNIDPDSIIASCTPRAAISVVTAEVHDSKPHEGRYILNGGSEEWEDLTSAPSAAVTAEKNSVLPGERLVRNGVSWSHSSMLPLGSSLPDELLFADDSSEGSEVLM
# Protocol: as §1
# DCAMKL2 (DCK2) = biological target: T2, DCAMKL2 (DCK2) (Homo sapiens, UniProt Q8N568)
# T2 sequence (Q8N568 1-766): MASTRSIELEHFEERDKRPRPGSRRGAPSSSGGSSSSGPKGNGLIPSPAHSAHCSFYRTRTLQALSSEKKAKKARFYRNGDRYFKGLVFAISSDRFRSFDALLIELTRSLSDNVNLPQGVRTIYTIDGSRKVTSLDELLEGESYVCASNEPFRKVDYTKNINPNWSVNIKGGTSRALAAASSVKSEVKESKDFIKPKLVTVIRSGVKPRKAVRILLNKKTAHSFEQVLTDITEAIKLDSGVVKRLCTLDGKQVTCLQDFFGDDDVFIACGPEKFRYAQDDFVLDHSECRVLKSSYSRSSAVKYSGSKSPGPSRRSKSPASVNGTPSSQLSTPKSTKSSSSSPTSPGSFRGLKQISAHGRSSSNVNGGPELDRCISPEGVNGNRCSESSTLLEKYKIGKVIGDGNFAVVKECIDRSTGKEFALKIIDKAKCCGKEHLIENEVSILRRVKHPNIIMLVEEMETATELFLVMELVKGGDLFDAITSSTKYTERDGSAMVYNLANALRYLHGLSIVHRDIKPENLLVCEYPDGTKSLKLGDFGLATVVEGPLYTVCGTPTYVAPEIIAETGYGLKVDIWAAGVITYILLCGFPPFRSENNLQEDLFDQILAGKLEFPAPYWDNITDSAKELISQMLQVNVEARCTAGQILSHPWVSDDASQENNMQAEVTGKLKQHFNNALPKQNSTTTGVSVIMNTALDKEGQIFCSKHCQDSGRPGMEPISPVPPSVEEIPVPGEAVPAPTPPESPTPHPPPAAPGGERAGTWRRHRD
# Protocol: as §1
# AXL = AXL (Homo sapiens, UniProt P30530); conditions: for Inhibition at 1 µM (%): AXL, ZLYTE, ATP Km app
# AXL, sequence (P30530 26-894): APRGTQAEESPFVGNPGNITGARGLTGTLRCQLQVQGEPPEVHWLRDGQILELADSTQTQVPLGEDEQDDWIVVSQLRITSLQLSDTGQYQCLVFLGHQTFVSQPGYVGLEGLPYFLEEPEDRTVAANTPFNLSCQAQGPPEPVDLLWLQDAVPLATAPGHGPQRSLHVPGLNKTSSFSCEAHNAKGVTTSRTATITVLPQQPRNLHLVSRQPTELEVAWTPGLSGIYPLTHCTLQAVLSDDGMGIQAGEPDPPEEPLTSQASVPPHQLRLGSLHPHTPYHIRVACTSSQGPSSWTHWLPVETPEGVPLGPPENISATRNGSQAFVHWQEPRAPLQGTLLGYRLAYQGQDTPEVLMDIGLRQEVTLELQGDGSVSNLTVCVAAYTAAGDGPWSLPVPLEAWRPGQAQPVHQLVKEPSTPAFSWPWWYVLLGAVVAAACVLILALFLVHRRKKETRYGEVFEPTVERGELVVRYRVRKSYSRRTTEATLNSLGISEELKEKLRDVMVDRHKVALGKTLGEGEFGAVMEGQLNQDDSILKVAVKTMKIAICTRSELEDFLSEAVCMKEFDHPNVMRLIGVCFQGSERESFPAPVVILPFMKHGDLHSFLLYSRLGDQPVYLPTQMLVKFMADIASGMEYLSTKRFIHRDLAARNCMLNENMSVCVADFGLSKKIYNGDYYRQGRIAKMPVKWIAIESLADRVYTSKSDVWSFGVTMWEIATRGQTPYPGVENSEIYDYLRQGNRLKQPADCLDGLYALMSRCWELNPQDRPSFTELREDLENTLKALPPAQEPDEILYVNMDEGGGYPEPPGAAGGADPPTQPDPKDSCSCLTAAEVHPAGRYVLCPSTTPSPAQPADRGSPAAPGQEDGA
# Protocol: as §1
# MAPK12 (p38 gamma) = biological target: T3, MAPK12 (p38 gamma) (Homo sapiens, UniProt P53778)
# T3 sequence (P53778 1-367): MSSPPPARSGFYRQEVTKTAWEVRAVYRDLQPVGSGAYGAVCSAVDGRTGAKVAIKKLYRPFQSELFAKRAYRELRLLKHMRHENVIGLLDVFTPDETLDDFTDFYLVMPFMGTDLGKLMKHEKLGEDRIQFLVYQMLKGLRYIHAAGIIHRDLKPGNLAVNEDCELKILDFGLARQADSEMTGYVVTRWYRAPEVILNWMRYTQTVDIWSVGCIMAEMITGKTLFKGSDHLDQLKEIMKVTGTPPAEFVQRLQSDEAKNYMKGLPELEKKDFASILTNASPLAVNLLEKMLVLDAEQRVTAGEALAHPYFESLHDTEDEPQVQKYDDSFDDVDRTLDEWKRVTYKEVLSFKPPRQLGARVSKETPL
# Protocol: as §1
# PRKCA (PKC alpha) = PRKCA (PKC alpha) (Homo sapiens, UniProt P17252)
# Protocol: as §1
# LIMK1 = LIMK1 (Homo sapiens, UniProt P53667)
# LIMK1, sequence (P53667 whole entry): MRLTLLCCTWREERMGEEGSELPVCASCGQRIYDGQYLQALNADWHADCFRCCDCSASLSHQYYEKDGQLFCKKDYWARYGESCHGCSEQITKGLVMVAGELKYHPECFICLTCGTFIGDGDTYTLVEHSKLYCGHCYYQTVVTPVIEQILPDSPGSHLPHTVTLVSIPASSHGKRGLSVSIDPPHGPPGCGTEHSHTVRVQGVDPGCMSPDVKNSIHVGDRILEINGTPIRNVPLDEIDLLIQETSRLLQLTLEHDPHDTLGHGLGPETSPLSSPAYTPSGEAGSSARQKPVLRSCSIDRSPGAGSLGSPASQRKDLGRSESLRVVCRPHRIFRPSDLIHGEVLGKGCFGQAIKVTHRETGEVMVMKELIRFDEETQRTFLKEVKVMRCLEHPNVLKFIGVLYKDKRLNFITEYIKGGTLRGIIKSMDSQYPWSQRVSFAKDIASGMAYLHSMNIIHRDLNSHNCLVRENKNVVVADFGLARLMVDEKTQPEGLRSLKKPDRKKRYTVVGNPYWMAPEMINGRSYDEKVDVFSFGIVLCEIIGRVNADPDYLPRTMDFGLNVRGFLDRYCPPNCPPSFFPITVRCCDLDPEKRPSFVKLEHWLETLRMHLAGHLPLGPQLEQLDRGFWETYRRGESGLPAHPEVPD
# Protocol: as §1
# [3] = 1 h, 1 μM WEL028, 1 h preincubation
# FLT3 (Homo sapiens, UniProt P36888), sequence (P36888 27-993, species assumed): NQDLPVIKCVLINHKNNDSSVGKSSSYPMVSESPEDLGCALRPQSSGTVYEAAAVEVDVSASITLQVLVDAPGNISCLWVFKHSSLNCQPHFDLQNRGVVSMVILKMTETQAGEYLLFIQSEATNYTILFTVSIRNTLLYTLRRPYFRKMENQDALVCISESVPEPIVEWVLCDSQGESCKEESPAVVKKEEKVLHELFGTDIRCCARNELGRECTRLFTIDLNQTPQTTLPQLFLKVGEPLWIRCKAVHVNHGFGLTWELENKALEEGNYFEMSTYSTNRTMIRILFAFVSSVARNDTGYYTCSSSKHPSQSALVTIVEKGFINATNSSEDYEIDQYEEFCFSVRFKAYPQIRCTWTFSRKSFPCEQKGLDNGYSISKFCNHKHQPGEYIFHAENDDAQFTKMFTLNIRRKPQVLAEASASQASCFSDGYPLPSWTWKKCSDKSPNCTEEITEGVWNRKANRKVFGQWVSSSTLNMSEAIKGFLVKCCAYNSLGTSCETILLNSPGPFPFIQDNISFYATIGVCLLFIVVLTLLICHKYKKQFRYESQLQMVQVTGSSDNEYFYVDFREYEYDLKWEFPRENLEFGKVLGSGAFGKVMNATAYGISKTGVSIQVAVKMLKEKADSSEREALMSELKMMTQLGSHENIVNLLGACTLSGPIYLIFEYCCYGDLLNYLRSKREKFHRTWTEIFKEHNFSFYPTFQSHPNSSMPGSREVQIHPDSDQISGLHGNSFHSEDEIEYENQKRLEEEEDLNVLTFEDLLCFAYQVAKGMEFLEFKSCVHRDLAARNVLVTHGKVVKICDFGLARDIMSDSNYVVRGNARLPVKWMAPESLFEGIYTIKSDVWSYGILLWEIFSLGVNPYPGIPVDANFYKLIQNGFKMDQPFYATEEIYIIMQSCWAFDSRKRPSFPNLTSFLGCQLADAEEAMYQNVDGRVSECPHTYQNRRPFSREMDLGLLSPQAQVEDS
smiles,measurement,setting,value
C#CCOc1ccc(Nc2ncc(Cl)c(Nc3ccccc3NC(=O)C=C)n2)c(OC)c1 [Compound 6],Apparent fold selectivity,FLT3 [1],718 fold
same,IC50,FLT3 [2],3.16 µM
same,inhibition at 1 µM,FLT3 [2]; [3],61%
same,Inhibition at 1 µM (%),"FLT3 [2]; FLT3, 1 µM, ZLYTE, ATP Km app, listed as WEL028, 1 µM",58%
same,inhibition at 1 µM,"FLT3 [2]; read-out: Inhibition at 1 µM (%), FLT3, 1 µM, ZLYTE, ATP Km app",64%
same,Inhibition at 1 µM (%),"SGK (SGK1); 1 µM, ZLYTE, ATP Km app, listed as WEL028, 1 µM",9%
same,inhibition at 1 µM,SGK (SGK1); [3],10%
same,inhibition at 1 µM,"SGK (SGK1); read-out: Inhibition at 1 µM (%), 1 µM, ZLYTE, ATP Km app",10%
same,inhibition at 1 µM,MAP3K2 (MEKK2); [3],3%
same,Inhibition at 1 µM (%),"MAP3K2 (MEKK2); MAP3K2 (MEKK2), 1 µM, LanthaScreen Binding, listed as WEL028, 1 µM",6% and 1%
same,inhibition at 1 µM,MERTK (cMER); [3],4%
same,Inhibition at 1 µM (%),"MERTK (cMER); MERTK (cMER), 1 µM, ZLYTE, ATP Km app, listed as WEL028, 1 µM",0% and 9%
same,inhibition at 1 µM,DCAMKL2 (DCK2); [3],3%
same,Inhibition at 1 µM (%),"DCAMKL2 (DCK2); DCAMKL2 (DCK2), 1 µM, ZLYTE, ATP Km app, listed as WEL028, 1 µM",2%
same,inhibition at 1 µM,"DCAMKL2 (DCK2); read-out: Inhibition at 1 µM (%), DCAMKL2 (DCK2), 1 µM, ZLYTE, ATP Km app",4%
same,inhibition at 1 µM,AXL; [3],-2%
same,Inhibition at 1 µM (%),AXL,3%
same,Inhibition at 1 µM (%),"AXL; listed as WEL028, 1 µM",-6%
same,inhibition at 1 µM,MAPK12 (p38 gamma); [3],10%
same,Inhibition at 1 µM (%),"MAPK12 (p38 gamma); MAPK12 (p38 gamma), 1 µM, ZLYTE, ATP Km app, listed as WEL028, 1 µM",7%
same,inhibition at 1 µM,"MAPK12 (p38 gamma); read-out: Inhibition at 1 µM (%), MAPK12 (p38 gamma), 1 µM, ZLYTE, ATP Km app",12%
same,inhibition at 1 µM,PRKCA (PKC alpha); [3],14%
same,Inhibition at 1 µM (%),"PRKCA (PKC alpha); PRKCA (PKC alpha), 1 µM, ZLYTE, ATP Km app, listed as WEL028, 1 µM",10%
same,inhibition at 1 µM,"PRKCA (PKC alpha); read-out: Inhibition at 1 µM (%), PRKCA (PKC alpha), 1 µM, ZLYTE, ATP Km app",19%
same,inhibition at 1 µM,LIMK1; [3],14%
same,Inhibition at 1 µM (%),"LIMK1; LIMK1, 1 µM, LanthaScreen Binding, listed as WEL028, 1 µM",12%
same,inhibition at 1 µM,"LIMK1; read-out: Inhibition at 1 µM (%), LIMK1, 1 µM, LanthaScreen Binding",16%
